Test results: ChEMBL document CHEMBL1275550, “In vitro activity of doripenem, a carbapenem for the treatment of challenging infections caused by gram-negative bacteria, against recent clinical isolates from the United States” (2008)
In brackets after ≈: the same amount, converted by molar mass.

Experiments:
Format in all cases: functional
[1] = tested on: Streptococcus pneumoniae; assay: Antimicrobial activity against penicillin-intermediate Streptococcus pneumoniae assessed as intermediate isolate by broth microdilution method
[2] = tested on: Streptococcus pneumoniae; assay: Antimicrobial activity against penicillin-resistant Streptococcus pneumoniae by broth microdilution method
[3] = tested on: Staphylococcus; assay: Antimicrobial activity against methicillin-susceptible coagulase-negative Staphylococcus assessed as susceptible isolate by broth microdilution method
[4] = tested on: Staphylococcus aureus; assay: Antimicrobial activity against methicillin-susceptible Staphylococcus aureus by broth microdilution method
[5] = tested on: Staphylococcus; assay: Antimicrobial activity against methicillin-susceptible coagulase-negative Staphylococcus by broth microdilution method
[6] = tested on: Staphylococcus aureus; assay: Antimicrobial activity against methicillin-susceptible Staphylococcus aureus assessed as susceptible isolate by broth microdilution method
[7] = tested on: Streptococcus pneumoniae; assay: Antimicrobial activity against penicillin-resistant Streptococcus pneumoniae assessed as resistant isolate by broth microdilution method
[8] = tested on: Streptococcus pneumoniae; assay: Antimicrobial activity against […] assessed as susceptible isolate by broth microdilution method
[9] = tested on: Streptococcus pneumoniae; assay: Antimicrobial activity against penicillin-susceptible Streptococcus pneumoniae by broth microdilution method
[10] = tested on: Escherichia coli; assay: Antimicrobial activity against ESBL producing Escherichia coli by broth microdilution method
[11] = tested on: Serratia marcescens; assay: Antimicrobial activity against Ceftazidime susceptible Serratia marcescens assessed as resistant isolate by broth microdilution method
[12] = tested on: Serratia marcescens; assay: Antimicrobial activity against Ceftazidime susceptible Serratia marcescens assessed as intermediate isolate by broth microdilution method
[13] = tested on: Enterobacter cloacae; assay: Antimicrobial activity against Enterobacter cloacae with derepressed AmpC beta-lactamsae assessed as intermediate isolate by broth microdilution method
[14] = tested on: Serratia marcescens; assay: Antimicrobial activity against Ceftazidime non-susceptible Serratia marcescens by broth microdilution method
[15] = tested on: Enterobacteriaceae; assay: Antimicrobial activity against Ceftazidime non-susceptible Enterobacteriaceae assessed as susceptible isolate by broth microdilution method
[16] = tested on: Enterobacter cloacae; assay: Antimicrobial activity against Enterobacter cloacae with derepressed AmpC beta-lactamsae assessed as resistant isolate by broth microdilution method
[17] = tested on: Klebsiella pneumoniae; assay: Antimicrobial activity against Non-ESBL Klebsiella pneumoniae by broth microdilution method
[18] = tested on: Proteus mirabilis; assay: Antimicrobial activity against ESBL producing Proteus mirabilis by broth microdilution method
[19] = tested on: Enterobacteriaceae; assay: Antimicrobial activity against ceftazidime-susceptible Enterobacteriaceae assessed as resistant isolate by broth microdilution method
[20] = tested on: Enterobacteriaceae; assay: Antimicrobial activity against Ceftazidime non-susceptible Enterobacteriaceae assessed as intermediate isolate by broth microdilution method
[21] = tested on: Klebsiella pneumoniae; assay: Antimicrobial activity against ESBL producing Klebsiella pneumoniae assessed as resistant isolate by broth microdilution method
[22] = tested on: Escherichia coli; assay: Antimicrobial activity against ESBL producing Escherichia coli assessed as susceptible isolate by broth microdilution method
[23] = tested on: Enterobacteriaceae; assay: Antimicrobial activity against ceftazidime-susceptible Enterobacteriaceae by broth microdilution method
[24] = tested on: Klebsiella pneumoniae; assay: Antimicrobial activity against ESBL producing Klebsiella pneumoniae assessed as intermediate isolate by broth microdilution method
[25] = tested on: Proteus mirabilis; assay: Antimicrobial activity against ESBL producing Proteus mirabilis assessed as susceptible isolate by broth microdilution method
[26] = tested on: Escherichia coli; assay: Antimicrobial activity against ESBL producing Escherichia coli assessed as intermediate isolate by broth microdilution method
[27] = tested on: Citrobacter; assay: Antimicrobial activity against Citrobacter with derepressed AmpC beta-lactamsae assessed as susceptible isolate by broth microdilution method
[28] = tested on: Enterobacter cloacae; assay: Antimicrobial activity against Enterobacter cloacae with nonderepressed AmpC beta-lactamsae assessed as resistant isolate by broth microdilution method
[29] = tested on: Serratia marcescens; assay: Antimicrobial activity against Ceftazidime susceptible Serratia marcescens by broth microdilution method
[30] = tested on: Klebsiella pneumoniae; assay: Antimicrobial activity against Non-ESBL Klebsiella pneumoniae assessed as susceptible isolate by broth microdilution method
[31] = tested on: Enterobacter cloacae; assay: Antimicrobial activity against Enterobacter cloacae with nonderepressed AmpC beta-lactamsae by broth microdilution method
[32] = tested on: Escherichia coli; assay: Antimicrobial activity against Non-ESBL Escherichia coli assessed as intermediate isolate by broth microdilution method
[33] = tested on: Enterobacteriaceae; assay: Antimicrobial activity against Ceftazidime non-susceptible Enterobacteriaceae by broth microdilution method
[34] = tested on: Proteus mirabilis; assay: Antimicrobial activity against Non-ESBL Proteus mirabilis assessed as susceptible isolate by broth microdilution method
[35] = tested on: Proteus mirabilis; assay: Antimicrobial activity against Non-ESBL Proteus mirabilis by broth microdilution method
[36] = tested on: Enterobacter cloacae; assay: Antimicrobial activity against Enterobacter cloacae with derepressed AmpC beta-lactamsae by broth microdilution method
[37] = tested on: Proteus mirabilis; assay: Antimicrobial activity against ESBL producing Proteus mirabilis assessed as intermediate isolate by broth microdilution method
[38] = tested on: Proteus mirabilis; assay: Antimicrobial activity against Non-ESBL Proteus mirabilis assessed as intermediate isolate by broth microdilution method
[39] = tested on: Citrobacter; assay: Antimicrobial activity against Citrobacter with nonderepressed AmpC beta-lactamsae assessed as susceptible isolate by broth microdilution method
[40] = tested on: Serratia marcescens; assay: Antimicrobial activity against Ceftazidime non-susceptible Serratia marcescens assessed as susceptible isolate by broth microdilution method
[41] = tested on: Serratia marcescens; assay: Antimicrobial activity against Ceftazidime non-susceptible Serratia marcescens assessed as resistant isolate by broth microdilution method
[42] = tested on: Enterobacteriaceae; assay: Antimicrobial activity against ceftazidime-susceptible Enterobacteriaceae assessed as intermediate isolate by broth microdilution method
[43] = tested on: Citrobacter; assay: Antimicrobial activity against Citrobacter with nonderepressed AmpC beta-lactamsae assessed as intermediate isolate by broth microdilution method
[44] = tested on: Escherichia coli; assay: Antimicrobial activity against Non-ESBL Escherichia coli assessed as susceptible isolate by broth microdilution method
[45] = tested on: Enterobacteriaceae; assay: Antimicrobial activity against Ceftazidime non-susceptible Enterobacteriaceae assessed as resistant isolate by broth microdilution method
[46] = tested on: Enterobacter cloacae; assay: Antimicrobial activity against Enterobacter cloacae with nonderepressed AmpC beta-lactamsae assessed as susceptible isolate by broth microdilution method
[47] = tested on: Serratia marcescens; assay: Antimicrobial activity against Ceftazidime non-susceptible Serratia marcescens assessed as intermediate isolate by broth microdilution method
[48] = tested on: Enterobacteriaceae; assay: Antimicrobial activity against ceftazidime-susceptible Enterobacteriaceae assessed as susceptible isolate by broth microdilution method
[49] = tested on: Klebsiella pneumoniae; assay: Antimicrobial activity against Non-ESBL Klebsiella pneumoniae assessed as intermediate isolate by broth microdilution method
[50] = tested on: Serratia marcescens; assay: Antimicrobial activity against Ceftazidime susceptible Serratia marcescens assessed as susceptible isolate by broth microdilution method
[51] = tested on: Enterobacter cloacae; assay: Antimicrobial activity against Enterobacter cloacae with nonderepressed AmpC beta-lactamsae assessed as intermediate isolate by broth microdilution method
[52] = tested on: Klebsiella pneumoniae; assay: Antimicrobial activity against ESBL producing Klebsiella pneumoniae by broth microdilution method
[53] = tested on: Klebsiella pneumoniae; assay: Antimicrobial activity against ESBL producing Klebsiella pneumoniae assessed as susceptible isolate by broth microdilution method
[54] = tested on: Escherichia coli; assay: Antimicrobial activity against Non-ESBL Escherichia coli by broth microdilution method
[55] = tested on: Citrobacter; assay: Antimicrobial activity against Citrobacter with derepressed AmpC beta-lactamsae by broth microdilution method
[56] = tested on: Escherichia coli; assay: Antimicrobial activity against ESBL producing Escherichia coli assessed as resistant isolate by broth microdilution method
[57] = tested on: Citrobacter; assay: Antimicrobial activity against Citrobacter with derepressed AmpC beta-lactamsae assessed as resistant isolate by broth microdilution method
[58] = tested on: Enterobacter cloacae; assay: Antimicrobial activity against Enterobacter cloacae with derepressed AmpC beta-lactamsae assessed as susceptible isolate by broth microdilution method
[59] = tested on: Escherichia coli; assay: Antimicrobial activity against Non-ESBL Escherichia coli assessed as resistant isolate by broth microdilution method
[60] = tested on: Citrobacter; assay: Antimicrobial activity against Citrobacter with nonderepressed AmpC beta-lactamsae by broth microdilution method
[61] = Streptococcus pneumoniae, read-out: MIC90

Work on `C[C@@H](O)[C@H]1C(=O)N2C(C(=O)O)=C(S[C@@H]3CN[C@H](C(=O)Nc4cccc(C(=O)O)c4)C3)[C@H](C)[C@H]12` yielded an Activity [1] of 94.5%, an MIC90 [2] of 2 µg/mL (≈ 4.21 µM) and an MIC90 [2, 61] of 2 µg/mL (≈ 4.21 µM). For the same compound, the Activity [3] was 99.4%, the MIC90 [4] was 0.5 µg/mL (≈ 1.05 µM) and the MIC90 ([4]; Staphylococcus aureus, read-out: MIC90) was 0.25 µg/mL (≈ 0.526 µM). It also gave an MIC90 [5] of 0.5 µg/mL (≈ 1.05 µM), an MIC90 ([5]; Staphylococcus, read-out: MIC90) of 0.25 µg/mL (≈ 0.526 µM) and an Activity [6] of 99.4%. It also gave an Activity [7] of 39.6%, an Activity [8] of 100% and an MIC90 [9] of 0.03 µg/mL (≈ 0.0631 µM). It also gave an MIC90 [9, 61] of 0.03 µg/mL (≈ 0.0631 µM).
In the case of `CO/N=C(\C(=O)N[C@@H]1C(=O)N2C(C(=O)O)=C(CSc3nc(=O)c(O)nn3C)CS[C@H]12)c1csc(N)n1` [CEFTRIAXONE], the MIC50 [10] is reported as > 64 µg/mL, the MIC90 [10] is reported as > 64 µg/mL and the Activity [11] is reported as 0.6%. It also gave an Activity [12] of 1.4%, an Activity [13] of 6.8% and an MIC50 [14] of 64 µg/mL (≈ 115 µM). The MIC90 [14] was > 64 µg/mL, the Activity [15] was 7.6% and the Activity [16] was 93.2%. It also gave an MIC50 [17] of 0.03 µg/mL (≈ 0.0541 µM), an MIC90 [17] of 0.12 µg/mL (≈ 0.216 µM) and an MIC [18] of 0.06 µg/mL (≈ 0.108 µM). The Activity [19] was 0.3%, the Activity [20] was 26.9% and the Activity [21] was 72.7%. It also gave an Activity [22] of 20%, an MIC50 [23] of 0.03 µg/mL (≈ 0.0541 µM) and an MIC90 [23] of 0.25 µg/mL (≈ 0.451 µM). It also gave an Activity [24] of 8.2%, an Activity [25] of 100% and an Activity [26] of 13.3%. For the same compound, the Activity [27] was 1.8%, the Activity [28] was 3.5% and the MIC50 [29] was 0.25 µg/mL (≈ 0.451 µM). For the same compound, the MIC90 [29] was 1 µg/mL (≈ 1.8 µM), the Activity [30] was 99.3% and the MIC50 [31] was 0.25 µg/mL (≈ 0.451 µM). The MIC90 [31] was 4 µg/mL (≈ 7.21 µM), the Activity [32] was 1.1% and the MIC50 [33] was > 64 µg/mL. For the same compound, the MIC90 [33] was > 64 µg/mL, the Activity [34] was 99.7% and the MIC [35] was ≤ 0.015 µg/mL. For the same compound, the MIC50 [35] was ≤ 0.015 µg/mL, the MIC90 [35] was ≤ 0.015 µg/mL and the MIC50 [36] was > 64 µg/mL. The MIC90 [36] was > 64 µg/mL, the Activity [37] was 0% and the Activity [38] was 0.3%. The Activity [39] was 97.8%, the Activity [40] was 10% and the Activity [41] was 60%. The Activity [42] was 0.4%, the Activity [43] was 1.1% and the Activity [44] was 98.7%. The Activity [45] was 65.4%, the Activity [46] was 91.9% and the Activity [47] was 30%. For the same compound, the Activity [48] was 99.3%, the Activity [49] was 0.3% and the Activity [50] was 98.1%. The Activity [51] was 4.7%, the MIC50 [52] was 64 µg/mL (≈ 115 µM) and the MIC90 [52] was > 64 µg/mL. The Activity [53] was 9.1%, the MIC50 [54] was 0.03 µg/mL (≈ 0.0541 µM) and the MIC90 [54] was 0.06 µg/mL (≈ 0.108 µM). For the same compound, the MIC50 [55] was 64 µg/mL (≈ 115 µM), the MIC90 [55] was > 64 µg/mL and the Activity [56] was 66.7%. It also gave an Activity [57] of 54.5%, an Activity [58] of 0% and an Activity [59] of 0.2%. It also gave an MIC50 [60] of 0.12 µg/mL (≈ 0.216 µM) and an MIC90 [60] of 0.5 µg/mL (≈ 0.902 µM).
